Among the data in patent US8207167B2, “Aryl-phenyl-sulfonamide-phenylene compounds and their use” (PIMCO 2664 Limited, priority 2008, dated 2012) are solubility, half-life and IC50 values, retold here.

For orientation: solubility means the concentration that dissolves in the medium under given conditions. A high value points to much dissolved substance. Broadly, the half-life is the time in which the quantity being followed falls by half. Lower therefore signals rapid decline. What is called IC50 is the concentration that inhibits the measured activity by half.

Values after ≈ are worked out from the molar mass of the structure shown.

A short description of series [1]: Thermodynamic aqueous solubility in fasted state simulated intestinal fluid (FaSSIF). In kind it is physicochemical. The following applies: pH 6.5, thermodynamic from solid, 25° C., 24 hours equilibration, HPLC. As for the experimental part: (§1) Initial screening of candidate compounds was performed using in vitro assays to determine potency, metabolic stability and solubility in biologically relevant fluids. Potency was assessed using a viability assay based on the survival of the J774 macrophage cell line. Macrophages are closely related to osteoclasts and have been used previously as a model system for osteoclast survival (see, e.g., Luckman et al., 1998). Like osteoclasts, J774 macrophages are dependent on continued NFκB activation for survival, thereby providing a valuable screen for compounds with anti-inflammatory activity. Metabolic stability was measured by determining the rate of disappearance of compound in the presence of human liver microsomal preparations, as quantified by LC-MS/MS. Solubility was measured by equilibration of the compound in fasted state simulated intestinal fluid (FaSSIF) and quantified by HPLC.
Thermodynamic aqueous solubility was measured by equilibration of a number of APSAP compounds, in the solid state, with fasted state simulated intestinal fluid (FaSSIF) and quantified by HPLC. Measurement of solubility in FaSSIF provides a valuable model for the prediction of drug dissolution following oral administration.
Preparation of blank FaSSIF: NaOH pellets (174 mg), NaH2PO4.2H2O (2.235 g), and NaCl (3.093 g) were dissolved in 500 mL of water. The pH was adjusted to 6.5 using 1 M NaOH solution.
Preparation of FaSSIF: Sodium taurocholate (165 mg) was dissolved in 25 mL blank FaSSIF. 0.6 mL of a solution containing 100 mg/mL lecithin in methylene chloride was added. The methylene chloride was eliminated under vacuum at about 40° C. The vacuum was drawn for 15 minutes at 250 mbar, followed by 15 minutes at 100 mbar. […] After cooling to room temperature, the solution was then adjusted to 100 mL with blank FaSSIF.
The suspension was equilibrated at 25° C. for 24 hours, and then the pH was measured. The suspension was then filtered through a glass fibre C filter into a 96-well plate. The filtrate was then diluted by a factor of 100. Quantification was made by HPLC with reference to a standard solution of compound at approximately 0.1 mg/mL in DMSO. Different volumes of the standard, diluted and undiluted sample solutions were injected. The solubility was calculated using the peak areas determined by integration of the peak found at the same retention time as the principal peak in the standard injection. Analysis was performed on an Agilent HP1100 series system equipped with a diode array detector and using ChemStation software vB.02.01-SR1.

Series [2] in a line: Human liver microsomal stability assay. Conditions: both sexes, pH 7.4; pooled human liver microsomes 0.5 mg/mL, test compound 3 μM, 45 minute incubation, NADPH. In kind it is in vitro ADME. As for the experimental part: as §1
Metabolic stability of APSAP derivatives was measured by determination of the rate of compound disappearance when incubated in the presence of human liver microsomes. Liver microsomes are prepared from the endoplasmic reticulum of hepatocytes and are the primary source of the most important enzymes (cytochrome P450) involved in drug metabolism. Study of drug stability in the presence of liver microsomes is accepted as a valuable model permitting rapid prediction of in vivo drug stability.
Human liver microsomes were obtained from a commercial source. Test compounds (3 μM) were incubated with pooled liver microsomes (male and female). Samples were incubated for a 45 minute period and removed at 5 time points and test compounds were analysed by LC-MS/MS.
The final incubation volume was 25 μL. A control incubation was included for each compound tested, where 0.1 M phosphate buffer pH 7.4 was added instead of NADPH. The control compounds testosterone and 7-hydroxycoumarin were included in each experiment and all incubations were performed singularly for each compound.
Each compound was incubated for 0, 5, 15, 30, and 45 minutes. The control (minus NADPH) was incubated for 45 minutes only. The reactions were stopped by the addition of 50 μL methanol containing internal standard at the appropriate time points. The incubation plates were centrifuged at 2500 rpm for 20 minutes at 4° C. to precipitate the protein.
Following protein precipitation, the sample supernatants were combined in cassettes of up to 4 compounds and analysed using standard LC-MS/MS conditions.
From a plot of the natural logarithm of the peak area ratio (i.e., the ratio of compound peak area:internal standard peak area) against time, the gradient of the line was determined. Subsequently, half-life and intrinsic clearance were calculated using the equations below: Eliminated rate constant(k)=(−gradient). […] Intrinsic Clearance(CLint)([…])=(V×0.693)/t1/2. wherein V=Incubation volume(μL/mg microsomal protein). Pharmacokinetics Studies
On the technique in general: Liver microsomes are vesicles of endoplasmic reticulum, rich in cytochrome P450 enzymes.

Series [3] has as its system J774 macrophages. As to the kind of experiment: Alamar Blue macrophage J774 viability assay. In kind it is cell-based. The following applies: Mus musculus, 72 hours culture with compound, Alamar Blue read-out. How it is done:
as §1
In vitro potency as anti-inflammatory agents was determined for a number of APSAP compounds by incubation with J774 macrophages and subsequent determination of cell viability.
J774 cells were plated at 10^4 cells per well in 100 μL αMEM (α Modified Eagle Medium) in 96-well plates and grown overnight. The next day, test compounds were added to the cultures, and cultures were continued for another 72 hours. At the end of the culture period, cell survival was determined using an Alamar Blue assay as previously described (see, e.g., Nociari et al., 1998).
Alamar Blue is an oxidation-reduction sensitive indicator. The dye itself is in the oxidised state, which is blue and non-fluorescent. The dye can accept electrons from reducing species, such as NADPH and FADH, to form a reduced dye species, which is red and fluorescent. Thus the transformation from oxidised form to reduced form can be measured by fluorimetric or colourimetric means. For fluorescence measurements, 530-560 nm excitation and 590 nm emission wavelengths are typically used. For colourimetric measurements, absorbance at 570 nm (reduced form) and 600 nm (oxidised form) is typically measured. A simple calculation is performed to determine the relative quantities of the two species.
A high ratio of the reducing species, NADPH and FADH, to the corresponding oxidised species, NADP and FAD, is an indicator that cells are proliferating and viable. A low ratio indicates cells that are quiescent or non-viable.
Briefly, Alamar Blue (Biosource International) was added undiluted to each well (1:10 v/v, 10 μL). The plate was incubated at 37° C. for 3-4 hours and the fluorescence was measured at 590 nm, with a 25 nm bandwidth. A high reading indicated cells with normal viability, and a low reading indicated cells that have been damaged and are no longer proliferating normally. The controls gave a high fluorescence reading, indicating a high number of live, healthy cells. A potent test compound gave a low fluorescence reading.
The average results for each test compound (n=5) were expressed as a percent (%) of the average control value.
Addition of Compounds. All of the compounds studied were made up as 100 mM solutions in DMSO. These stock solutions were then diluted 1000-10000× in culture medium (αMEM). From these 100 μM or 10 μM solutions, convenient quantities (3-33 μL) were added directly to the wells so as to give the desired final compound concentration.
For orientation: Resazurin is reduced to fluorescent resorufin, in cell work by metabolically active cells.

The mark [4] stands for this setting: fasted state simulated intestinal fluid (FaSSIF).

In series [1] (setting [4]), `O=S(=O)(Nc1cccc(C(O)CN2CCOCC2)c1)c1ccc(-c2ccc(F)cc2F)cc1` (stereo not drawn) [ABD785, 2′,4′-Difluoro-N-(3-(1-hydroxy-2-morpholinoethyl)phenyl)biphenyl-4-sulfonamide] showed a solubility at 24 h of 210 µg/mL (≈ 443 µM). Also, the half-life at 3 μM in series [2] worked out at 6 min. Moreover, the half-maximal inhibitory concentration (IC50) in series [3] came out at 4.71 µM.
In series [1] (setting [4]), `NS(=O)(=O)c1cccc(NS(=O)(=O)c2ccc(-c3ccc(Cl)cc3Cl)cc2)c1` [ABD751, 2′,4′-Dichloro-N-(3-sulfamoylphenyl)biphenyl-4-sulfonamide] yielded a solubility at 24 h of 40 µg/mL (≈ 87.5 µM). In addition, the half-life at 3 μM in series [2] worked out at 46 min. Also, the 50% inhibitory concentration (IC50) in series [3] is 0.87 µM.
As for `O=S(=O)(Nc1ccc(CO)cc1)c1ccc(-c2ccc(F)cc2F)cc1` [ABD466, 2′,4′-difluoro-biphenyl-4-sulfonic acid (4-hydroxymethyl-phenyl)-amide, reference compound], the solubility at 24 h in series [1] is 40 µg/mL (≈ 107 µM). Besides, in series [2], the half-life at 3 μM was 2 min. Further, in series [3], the IC50 stood at 3 µM.
On to `CN(C)C(CO)c1cccc(NS(=O)(=O)c2ccc(-c3ccc(F)cc3F)cc2)c1` (stereo not drawn) [ABD791, N-(3-(1-(Dimethylamino)-2-hydroxyethyl)phenyl)-2′,4′-difluorobiphenyl-4-sulfonamide], for which the solubility at 24 h in series [1] (setting [4]) was 3000 µg/mL (≈ 6940 µM). The half-life at 3 μM in series [2] is 27 min. For the same molecule, in series [3], the half-maximal inhibitory concentration (IC50) was 0.57 µM.
Molecule `NCc1cccc(NS(=O)(=O)c2ccc(-c3ccc(F)cc3F)cc2)c1` [ABD788, N-(3-(Aminomethyl)phenyl)-2′,4′-difluorobiphenyl-4-sulfonamide] returned a solubility at 24 h in series [1] (setting [4]) of 50 µg/mL (≈ 134 µM). The half-life at 3 μM in series [2] was found to be 60 min. Besides, the IC50 in series [3] worked out at 1 µM.
The like results for `CC(C)(O)c1cccc(NS(=O)(=O)c2ccc(-c3ccc(Cl)cc3Cl)cc2)c1` [ABD707, 2′,4′-Dichloro-N-(3-(2-hydroxypropan-2-yl)phenyl)biphenyl-4-sulfonamide] were, in that order, 140 µg/mL (≈ 321 µM), 12 min and 0.09 µM.
The molecule `N[C@H](CO)c1cccc(NS(=O)(=O)c2ccc(-c3ccc(F)cc3F)cc2)c1` [ABD855, (S)—N-(3-(1-Amino-2-hydroxyethyl)phenyl)-2′,4′-difluorobiphenyl-4-sulfonamide] registered a solubility at 24 h in series [1] (setting [4]) of 4100 µg/mL (≈ 10100 µM). This molecule registered a half-life at 3 μM in series [2] of 289 min. In addition, the IC50 in series [3] is 0.86 µM.
For `CN(C)Cc1cccc(NS(=O)(=O)c2ccc(-c3ccc(Cl)cc3Cl)cc2)c1` [ABD724, 2′,4′-Dichloro-N-(3-((dimethylamino)methyl)phenyl)biphenyl-4-sulfonamide], the concentration in solution in series [1] (setting [4]) (solubility at 24 h) came to 90 µg/mL (≈ 207 µM). The molecule also showed a half-life at 3 μM in series [2] of 21 min. The half-maximal inhibitory concentration (IC50) in series [3] amounted to 0.3 µM.
